Where “and” joins values, the source holds several entries; their conditions need not be identical. Equal values may be shown once.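 Compound exposure: 48 hours, 5 concentrations, 96-well plates. At the TGI there is no net growth.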 Where a SMILES comes first, the peptide text is derived from it. The star is where a group is joined. Cbz = O=C(OCc1ccccc1)*; Boc = CC(C)(C)OC(=O)*; OSu = O=C1CCC(=O)N1O*; Bn = c1ccc(C*)cc1
Experiments:
Assay in all cases: NCI anticancer screen, dose series, 48 h
TK-10 renal = tested on: TK-10 renal
OVCAR-3 ovarian = tested on: OVCAR-3 ovarian
DMS 273 small cell lung = tested on: DMS 273 small cell lung
LXFL 529 NSCLC = tested on: LXFL 529 NSCLC
SNB-78 CNS = tested on: SNB-78 CNS
DLD-1 colon = tested on: DLD-1 colon
M19-MEL melanoma = tested on: M19-MEL melanoma
XF 498 CNS = tested on: XF 498 CNS
KM20L2 colon = tested on: KM20L2 colon

SMILES | TGI (TK-10 renal) | TGI (OVCAR-3 ovarian) | further results
CNC(=O)N(CCC#N)CCCN(C(=O)NC)c1ccccc1 | > 100 µM | > 100 µM | 
CCCCCCOc1ccc(C(=O)NO)cc1 | > 100 µM | 28.6 µM | 
CCN1C(=O)C(C)S/C1=N\NC(=O)CSc1nc2ccccc2c(=O)n1CC (centres undefined) | > 100 µM | > 100 µM | 
Cc1ccc(N=Nc2ccc(O)c(CN(C)C)c2)cc1 | 44.5 µM | 31.8 µM | 
c1ccc(-n2nc3ccc4nonc4c3n2)cc1 | > 100 µM | > 100 µM | 
COc1cc(C2C(C#N)=C(N)OC3=C2CCS(=O)(=O)c2ccc(C)cc23)cc(OC)c1OC (centres undefined) | > 100 µM | > 100 µM | 
N#Cc1c(N)[nH]c(=S)c(C#N)c1-c1ccccc1 | > 100 µM | > 100 µM | 
C=CCSC1=N/C(=C\c2cccs2)C(=O)N1CC=C | > 100 µM | > 100 µM | 
Cc1ncc2c(=O)c3c(oc2n1)c1ccccc1n3Cc1ccccc1 | > 100 µM | > 100 µM | 
CN(N)c1cc(=O)[nH]c(=O)[nH]1 | > 100 µM | > 100 µM | 
CC1=CC[C@@]2(CO)[C@@H]([C@@H]1C)[C@H]1CC[C@@H]3[C@@]4(C)CC[C@H](O)C(C)(C)[C@@H]4CC[C@@]3(C)[C@]1(C)C[C@@H]2O | 44.4 µM | > 100 µM | 
CC(=O)Nc1cc2c3c(c1)CCCN3CCC2 | > 100 µM | > 100 µM | 
O=C(c1ccccc1)c1ccc(-n2c3ccccc3c3ccc4c(c32)C(=O)C=CC4=O)cc1 | 25.3 µM | 20.8 µM | 
CCOC(=O)CSc1nnc2cc(CN3CCCC3)c(-c3ccc(Cl)cc3)nn12 | > 100 µM | > 100 µM | 
CN(C)S(=O)(=O)/N=C/c1cccc(/C=N/S(=O)(=O)N(C)C)c1 | > 100 µM | > 100 µM | 
C=C(C)[C@@]1(OC(=O)c2cc([N+](=O)[O-])cc([N+](=O)[O-])c2)C[C@@H]2CCCC[C@@H]21 | > 100 µM |  | 
Nc1cc(N2CCCC2)nc(=O)n1-c1ccccc1 | > 100 µM |  | 
CCOC(=O)[C@@]12C[C@](/C=C/OC)(O[Si](C)(C)C)[C@@]13c1cc(OC)c(OC)cc1CCN3C(=O)C2O (some centres undefined) | > 100 µM | > 100 µM | 
O=P1(Oc2ccccc2)N(CCCl)CCN1c1ccccc1 (centres undefined) | > 100 µM | > 100 µM | 
CN(NC(=O)c1cccs1)C1=NCCCCN1 | > 100 µM | > 100 µM | 
COc1ccc2[nH]cc([C@@H]3C4CCC(C4)[C@H]3NCc3cccc(CN[C@H]4C5CCC(C5)[C@@H]4c4c[nH]c5ccc(OC)cc45)c3)c2c1 | 2.87 µM and 3.03 µM | 2.89 µM and 3.02 µM | 
C=C[C@@H]1C[C@]2(C(=O)OC)Cc3nc4ccccc4nc3CC(C(=O)OC)=C2O1 | > 100 µM | > 100 µM | 
C[n+]1c(-c2ccc(/C=N/NC(=O)C(=O)N/N=C/c3ccc(-c4cn5ccsc5[n+]4C)cc3)cc2)cn2ccsc21 | > 100 µM |  | 

SMILES | TGI (TK-10 renal) | TGI (OVCAR-3 ovarian) | further results
COc1cc2cccc(N)c2cc1OC | > 72 µM | > 100 µM | 
CCCCC(Sc1cc(Cl)c(C)cc1S(=O)(=O)Nc1n[nH]c(N)n1)C(=O)OC (centres undefined) | > 10 µM | > 10 µM | 
O=C(Nc1ccccc1)N(C1=NCC(CI)S1)c1ccc(F)cc1F (centres undefined) | > 100 µM | > 100 µM | 
CC(NC(=O)C(N)CC(=O)O)NC(=O)C1CCC1 (centres undefined) | > 100 µM | > 100 µM | 
CO/N=C(\C(=O)N(C)n1cnnc1)c1csc(NC(c2ccccc2)(c2ccccc2)c2ccccc2)n1 | > 10 µM | > 10 µM | 
CCOC(=O)C(C)NC(=O)C(C)NC(=O)C(C)NC(=O)C(C)NC(=O)C(C)NC(=O)OCc1ccccc1 (centres undefined) | > 100 µM | > 100 µM | 
COC(=O)/C=C1/CCC(C)(C(=O)NS(=O)(=O)c2ccc(C)cc2)C1(C)C (centres undefined) | > 100 µM | > 100 µM | 
CC(C)(C)OC(=O)NC(Cc1ccc(OCc2ccccc2)cc1)C(=O)NC(CCCCNC(=O)OCc1ccccc1)C(=O)ON1C(=O)CCC1=O (centres undefined) (Boc-Tyr(Bn)-Lys(Cbz)-OSu; configuration not given here) | > 100 µM |  | 
COc1cc(S(=O)(=O)Nc2ccc(-c3csc(N)n3)cc2)ccc1Cl |  | 28.9 µM | 
CCCCCCCCCCCCCCCCOCC(Cl)COP(=O)(O)OP(=O)(O)OCC1OC(n2cc(C)c(=O)[nH]c2=O)CC1O (centres undefined) | > 100 µM | > 100 µM | 
Cc1ccc(-c2cc(C(F)(F)F)nn2-c2ccc(S(N)(=O)=O)cc2)cc1 | > 59.2 µM | 32 µM | 
O=c1ccn(C2OC(CO)C(O)C2[Se]c2ccccc2)c(=O)[nH]1 (centres undefined) | 0.685 µM | > 100 µM | 
c1ccc([P+](Cc2ccccc2C[P+](c2ccccc2)(c2ccccc2)c2ccccc2)(c2ccccc2)c2ccccc2)cc1 | > 100 µM | > 100 µM | 
CCOc1ccc(N/C(Cl)=C(Cl)\C(=C(\Nc2ccc(OCC)cc2)n2nnc3ccccc32)[N+](=O)[O-])cc1 | 17.1 µM | 20.3 µM | 
O=C(CSc1nc2[nH]ncc2c(=O)[nH]1)c1ccc(Cl)cc1 | > 100 µM | > 100 µM | 
Cc1nnc2sc(NN)nn12 | > 100 µM | > 100 µM | 
Clc1cc(Cl)cc(C2ON=C(c3ccccc3)N2C23CC4CC(CC(C4)C2)C3)c1 (centres undefined) | > 10 µM | > 10 µM | 
CC(=O)Nc1ccc2[nH]c(-c3cccc(Cl)c3)cc(=O)c2c1 | > 100 µM |  | 
N#C/C(C(=O)Nc1ccc(Cl)cc1)=C(/N)N1CCCCC1 |  | > 100 µM | 
CC(=O)CSc1c(-c2ccccc2)c(=O)n(-c2ccccc2)c(=S)n1-c1ccccc1 | > 100 µM | > 100 µM | 
COC(CC1(/C=C/O[Si](C(C)C)(C(C)C)C(C)C)C(=O)N(C)c2ccccc21)OC (centres undefined) |  | > 100 µM | 
CC(=O)NC1=C(NCCN(C)C)C(=O)c2ccccc2C1=O | > 50 µM | > 50 µM | TGI (DMS 273 small cell lung): 27.6 µM; TGI (LXFL 529 NSCLC): > 50 µM; TGI (SNB-78 CNS): > 50 µM; TGI (DLD-1 colon): > 50 µM; TGI (M19-MEL melanoma): 14.3 µM; TGI (XF 498 CNS): 35.1 µM; TGI (KM20L2 colon): > 50 µM
